Source: PMC2553842, “L-DOPA Is an Endogenous Ligand for OA1” (PLoS Biology, 2008)

Biological target: T1, OA1 (Homo sapiens, UniProt P51810)
T1 construct: gene GPR143
Test: radioligand saturation binding ([3H]-L-DOPA) on OA1-transfected CHO cells, with Scatchard analysis; supported by calcium response and beta-arrestin recruitment
Format: cell-based

T1 sequence (P51810 whole entry): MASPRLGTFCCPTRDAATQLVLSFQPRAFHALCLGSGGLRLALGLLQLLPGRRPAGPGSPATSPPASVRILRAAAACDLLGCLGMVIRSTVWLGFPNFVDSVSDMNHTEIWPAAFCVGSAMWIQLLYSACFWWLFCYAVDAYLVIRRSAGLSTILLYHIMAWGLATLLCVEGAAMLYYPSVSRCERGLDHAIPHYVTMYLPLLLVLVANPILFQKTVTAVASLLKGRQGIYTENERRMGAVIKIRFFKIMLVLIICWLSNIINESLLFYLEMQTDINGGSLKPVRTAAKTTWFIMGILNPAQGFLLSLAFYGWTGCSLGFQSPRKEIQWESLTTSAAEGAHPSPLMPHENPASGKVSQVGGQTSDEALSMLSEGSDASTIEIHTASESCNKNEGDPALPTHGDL

Kd: 9.35 µM
Compound: N[C@@H](Cc1ccc(O)c(O)c1)C(=O)O [L-DOPA]
